The test system of one test is Escherichia coli. The test is described as follows: Antibacterial activity against Escherichia coli ATCC 11303 at 300 ug/disk after 24 hrs by paper disk diffusion test. To be noted: for zone of inhibition at 300 µg/disc: ATCC 11303, 24 h, read-out: IZ. The test is classed as functional. Background: In agar diffusion tests the substance spreads into inoculated agar from a disc or well.

Test [1] concerns the target Proto-oncogene tyrosine-protein kinase receptor Ret (Homo sapiens, UniProt P07949). The test is described as follows: Inhibition of Ret.
Test [2] has as its target Proto-oncogene tyrosine-protein kinase Src (Homo sapiens, UniProt P12931). Description: Inhibition of Src.
Another test deals with Streptomyces chartreusis. Description: Antibacterial activity against Streptomyces chartreusis NRRL 11407 at 300 ug/disk after 24 hrs by paper disk diffusion test. Type of test: functional. Particulars: NRRL 11407, 24 h, read-out: IZ.
The target in test [3] is Hepatocyte growth factor receptor (Homo sapiens, UniProt P08581). The test is described as follows: Inhibition of cMet.
A short description of test [4]: Inhibition of PKA.
For test [5], the target named is Insulin-like growth factor 1 receptor (Homo sapiens, UniProt P08069). Description: Inhibition of IGF1R.
The target in test [6] is Vascular endothelial growth factor receptor 2 (Homo sapiens, UniProt P35968). The test is described as follows: Inhibition of KDR.
Another test has as its system Candida albicans. Description: Antimicrobial activity against Candida albicans IP444 at 300 ug/disk after 24 hrs by paper disk diffusion test. The test is classed as functional. Particulars: for zone of inhibition at 300 µg/disc: read-out: IZ.
Test [7] has as its target Tyrosine-protein kinase ABL1 (Homo sapiens, UniProt P00519). Description: Inhibition of c-Abl.
The subject of the next test is Bacillus cereus. Description: Antibacterial activity against Bacillus cereus ATCC 14579 at 300 ug/disk after 24 hrs by paper disk diffusion test. The test is classed as functional. Particulars: ATCC 14579, 24 h, read-out: IZ.
In test [8] the target is Cyclin-dependent kinase 2 (Homo sapiens, UniProt P24941). Description: Inhibition of CDK2/Cyclin A.

Activity calls are given as the source filed them. The rule behind the calls is not given here.

Sequence of Tyrosine-protein kinase ABL1 (P00519 whole entry, the tested form may be a part): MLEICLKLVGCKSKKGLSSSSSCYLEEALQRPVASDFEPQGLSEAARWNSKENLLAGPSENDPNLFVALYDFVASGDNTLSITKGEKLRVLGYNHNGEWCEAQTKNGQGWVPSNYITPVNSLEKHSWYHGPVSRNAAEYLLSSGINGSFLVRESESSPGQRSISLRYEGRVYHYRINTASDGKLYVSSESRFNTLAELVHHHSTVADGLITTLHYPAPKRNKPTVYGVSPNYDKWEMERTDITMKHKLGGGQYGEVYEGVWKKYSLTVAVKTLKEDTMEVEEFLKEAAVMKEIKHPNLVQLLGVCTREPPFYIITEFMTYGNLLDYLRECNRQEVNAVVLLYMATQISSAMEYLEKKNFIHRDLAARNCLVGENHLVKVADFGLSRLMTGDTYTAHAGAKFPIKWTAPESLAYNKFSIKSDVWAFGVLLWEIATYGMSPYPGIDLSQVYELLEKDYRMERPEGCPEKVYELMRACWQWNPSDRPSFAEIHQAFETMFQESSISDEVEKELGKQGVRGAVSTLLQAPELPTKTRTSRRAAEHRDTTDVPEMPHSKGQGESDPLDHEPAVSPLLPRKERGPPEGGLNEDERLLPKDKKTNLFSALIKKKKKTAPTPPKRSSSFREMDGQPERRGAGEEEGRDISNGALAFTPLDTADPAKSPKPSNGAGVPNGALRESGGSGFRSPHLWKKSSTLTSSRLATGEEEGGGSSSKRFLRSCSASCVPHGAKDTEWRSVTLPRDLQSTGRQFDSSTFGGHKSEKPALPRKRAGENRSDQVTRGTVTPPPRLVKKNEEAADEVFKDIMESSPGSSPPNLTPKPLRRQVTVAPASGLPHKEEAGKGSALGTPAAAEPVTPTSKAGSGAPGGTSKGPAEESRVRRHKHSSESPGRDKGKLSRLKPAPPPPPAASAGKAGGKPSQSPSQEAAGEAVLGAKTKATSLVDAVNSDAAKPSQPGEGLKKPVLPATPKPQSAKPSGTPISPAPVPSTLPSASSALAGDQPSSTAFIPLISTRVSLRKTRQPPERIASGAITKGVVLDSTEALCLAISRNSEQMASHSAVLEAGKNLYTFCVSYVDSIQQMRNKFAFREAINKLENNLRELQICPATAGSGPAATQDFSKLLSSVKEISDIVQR
Sequence of Proto-oncogene tyrosine-protein kinase Src (P12931 2-536 limits assumed): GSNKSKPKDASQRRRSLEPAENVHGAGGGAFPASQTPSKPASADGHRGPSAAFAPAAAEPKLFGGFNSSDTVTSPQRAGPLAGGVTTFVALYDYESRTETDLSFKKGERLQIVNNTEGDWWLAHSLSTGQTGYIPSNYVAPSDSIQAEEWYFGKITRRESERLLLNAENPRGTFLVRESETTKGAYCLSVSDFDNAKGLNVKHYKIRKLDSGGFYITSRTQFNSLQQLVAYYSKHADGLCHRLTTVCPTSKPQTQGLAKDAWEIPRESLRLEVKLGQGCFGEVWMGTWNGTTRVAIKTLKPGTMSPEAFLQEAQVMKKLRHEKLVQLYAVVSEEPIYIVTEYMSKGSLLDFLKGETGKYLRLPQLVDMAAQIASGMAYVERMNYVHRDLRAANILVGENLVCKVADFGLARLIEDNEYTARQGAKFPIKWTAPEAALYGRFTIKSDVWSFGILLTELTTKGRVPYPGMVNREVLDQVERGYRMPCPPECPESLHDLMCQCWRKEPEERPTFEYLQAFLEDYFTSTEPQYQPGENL
Sequence of Hepatocyte growth factor receptor (P08581 whole entry): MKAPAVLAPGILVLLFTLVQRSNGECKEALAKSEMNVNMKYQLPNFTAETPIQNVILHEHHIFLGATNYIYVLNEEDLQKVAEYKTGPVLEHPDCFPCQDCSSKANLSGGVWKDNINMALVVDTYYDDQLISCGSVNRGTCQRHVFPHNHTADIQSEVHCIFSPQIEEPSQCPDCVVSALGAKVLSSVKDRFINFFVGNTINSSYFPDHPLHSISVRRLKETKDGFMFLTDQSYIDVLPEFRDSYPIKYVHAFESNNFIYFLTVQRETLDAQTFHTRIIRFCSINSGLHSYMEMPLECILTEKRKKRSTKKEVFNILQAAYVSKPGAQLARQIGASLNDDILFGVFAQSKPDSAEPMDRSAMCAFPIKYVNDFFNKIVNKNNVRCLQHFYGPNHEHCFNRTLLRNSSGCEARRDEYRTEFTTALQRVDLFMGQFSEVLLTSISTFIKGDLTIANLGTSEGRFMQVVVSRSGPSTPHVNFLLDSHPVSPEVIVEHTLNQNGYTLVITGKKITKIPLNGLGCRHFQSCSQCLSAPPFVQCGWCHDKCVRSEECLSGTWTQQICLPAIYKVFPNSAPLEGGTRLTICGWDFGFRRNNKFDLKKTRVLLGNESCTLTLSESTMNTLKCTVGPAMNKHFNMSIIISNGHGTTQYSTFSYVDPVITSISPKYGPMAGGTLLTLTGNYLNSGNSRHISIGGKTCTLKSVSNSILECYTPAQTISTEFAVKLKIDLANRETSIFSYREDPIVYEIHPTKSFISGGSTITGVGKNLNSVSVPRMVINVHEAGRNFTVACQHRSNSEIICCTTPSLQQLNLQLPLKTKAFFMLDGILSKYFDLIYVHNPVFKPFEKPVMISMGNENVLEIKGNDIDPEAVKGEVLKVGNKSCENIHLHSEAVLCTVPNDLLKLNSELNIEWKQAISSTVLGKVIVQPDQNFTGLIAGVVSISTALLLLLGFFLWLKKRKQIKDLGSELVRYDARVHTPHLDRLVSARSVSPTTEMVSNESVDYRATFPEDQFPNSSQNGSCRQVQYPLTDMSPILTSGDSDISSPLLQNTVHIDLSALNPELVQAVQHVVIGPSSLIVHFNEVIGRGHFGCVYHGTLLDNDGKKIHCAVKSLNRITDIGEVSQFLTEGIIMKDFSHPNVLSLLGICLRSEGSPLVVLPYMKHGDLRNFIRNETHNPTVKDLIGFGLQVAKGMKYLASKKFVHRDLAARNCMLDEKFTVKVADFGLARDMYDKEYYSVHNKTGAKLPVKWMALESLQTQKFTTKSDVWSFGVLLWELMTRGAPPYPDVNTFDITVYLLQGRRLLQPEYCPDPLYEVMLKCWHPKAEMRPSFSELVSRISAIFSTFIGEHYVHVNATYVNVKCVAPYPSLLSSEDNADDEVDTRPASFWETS
Sequence of Vascular endothelial growth factor receptor 2 (P35968 whole entry, the tested form may be a part): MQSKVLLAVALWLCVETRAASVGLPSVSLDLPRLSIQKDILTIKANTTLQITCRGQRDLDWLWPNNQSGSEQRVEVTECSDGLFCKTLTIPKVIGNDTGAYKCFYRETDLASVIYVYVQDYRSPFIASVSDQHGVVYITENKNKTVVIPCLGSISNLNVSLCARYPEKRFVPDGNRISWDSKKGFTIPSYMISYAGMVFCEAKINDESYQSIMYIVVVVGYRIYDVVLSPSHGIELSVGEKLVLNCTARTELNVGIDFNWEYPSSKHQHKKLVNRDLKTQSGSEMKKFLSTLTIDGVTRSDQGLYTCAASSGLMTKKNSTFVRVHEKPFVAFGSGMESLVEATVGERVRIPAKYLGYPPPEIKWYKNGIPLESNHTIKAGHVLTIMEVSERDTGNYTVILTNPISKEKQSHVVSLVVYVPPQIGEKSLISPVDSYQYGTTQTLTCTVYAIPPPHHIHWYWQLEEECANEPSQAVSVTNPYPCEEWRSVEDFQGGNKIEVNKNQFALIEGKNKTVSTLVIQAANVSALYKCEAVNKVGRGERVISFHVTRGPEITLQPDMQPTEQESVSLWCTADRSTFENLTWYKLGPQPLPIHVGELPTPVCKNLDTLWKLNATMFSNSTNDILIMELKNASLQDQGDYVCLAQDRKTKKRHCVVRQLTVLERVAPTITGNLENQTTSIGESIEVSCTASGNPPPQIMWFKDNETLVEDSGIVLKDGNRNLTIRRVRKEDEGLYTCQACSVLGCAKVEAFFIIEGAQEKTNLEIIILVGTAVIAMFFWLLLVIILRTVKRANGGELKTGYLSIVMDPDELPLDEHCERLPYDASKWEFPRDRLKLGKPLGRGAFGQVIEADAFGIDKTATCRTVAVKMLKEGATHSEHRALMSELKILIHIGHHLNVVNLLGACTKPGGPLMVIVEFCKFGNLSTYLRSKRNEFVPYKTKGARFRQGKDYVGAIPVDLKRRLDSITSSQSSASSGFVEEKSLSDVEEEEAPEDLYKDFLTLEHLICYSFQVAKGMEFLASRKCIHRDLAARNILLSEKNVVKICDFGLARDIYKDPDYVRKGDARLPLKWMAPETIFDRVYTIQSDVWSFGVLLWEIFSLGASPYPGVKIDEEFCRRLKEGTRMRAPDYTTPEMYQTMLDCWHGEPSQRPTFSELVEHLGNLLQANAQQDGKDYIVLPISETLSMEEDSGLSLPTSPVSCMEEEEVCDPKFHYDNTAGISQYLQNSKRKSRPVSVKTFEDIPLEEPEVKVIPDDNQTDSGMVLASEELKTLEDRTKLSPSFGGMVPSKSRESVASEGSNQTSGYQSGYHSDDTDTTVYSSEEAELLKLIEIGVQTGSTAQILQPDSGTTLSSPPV

For the molecule `N[C@@H](CCCCN/C=C1\C(=O)Nc2ccccc21)C(=O)O`, in the test with Escherichia coli, the outcome was inactive. In addition, the IC50 in test [1], in test [2], in test [3], in test [4], in [5] and in [6] was greater than 10 µM each time. The molecule also yielded an IC50 in test [7] greater than 10 µM. The zone of inhibition at 300 µg/disc with Streptomyces chartreusis, in the test with Candida albicans and in the test on Bacillus cereus was 6 mm each time.
For the molecule `N[C@@H](CCCCN/C=C1\C(=O)Nc2ccc(Br)cc21)C(=O)O`, in the test with Escherichia coli, the outcome was inactive. Besides, the IC50 in test [1], in test [2], in test [3], in test [4], in [5] and in test [6] was greater than 10 µM each time. This molecule displayed an IC50 in [7] greater than 10 µM. The zone of inhibition at 300 µg/disc came out at 7 mm in the test with Streptomyces chartreusis, 6 mm in the test with Candida albicans and 6 mm with Bacillus cereus.
As to `CC1(C)S[C@@H]2[C@H](NC(=O)[C@H](N)c3ccccc3)C(=O)N2[C@H]1C(=O)O` [AMPICILLIN], the results for the zone of inhibition at 300 µg/disc with Escherichia coli, in the test on Streptomyces chartreusis and in the test with Bacillus cereus were 31 mm, 25 mm and 13 mm, respectively.
Regarding `N[C@@H](CCCN/C=C1\C(=O)Nc2ccccc21)C(=O)O`, the zone of inhibition at 300 µg/disc in the test on Escherichia coli is 6 mm; with Streptomyces chartreusis, 10 mm; with Candida albicans, 6 mm; in the test with Bacillus cereus, 7 mm. For the same molecule, the IC50 in test [1], in test [2], in [3], in test [4], in [5] and in [6] was greater than 10 µM in each case. Further, the IC50 in test [7] is greater than 10 µM.
As for `C[C@@H]1[C@H](O)[C@@H](C)/C=C/C=C/C=C/C=C/C=C/C=C/C=C/[C@H](O[C@@H]2O[C@H](C)[C@@H](O)[C@H](N)[C@@H]2O)C[C@@H]2O[C@](O)(C[C@@H](O)C[C@@H](O)[C@H](O)CC[C@@H](O)C[C@@H](O)CC(=O)O[C@H]1C)C[C@H](O)[C@H]2C(=O)O` [AMPHOTERICIN B], the zone of inhibition at 300 µg/disc with Candida albicans stood at 13 mm.
As for `N[C@@H](CCCN/C=C1\C(=O)Nc2ccc(Br)cc21)C(=O)O`, the outcome with Escherichia coli and in the test with Candida albicans was inactive. For the same molecule, the IC50 in test [1] was greater than 10 µM; in test [2], greater than 10 µM; in [3], greater than 10 µM; in [8], 6.6 µM; in [4] it was greater than 10 µM; in test [5] it was greater than 10 µM. In addition, the IC50 in test [6] and in [7] was greater than 10 µM throughout. Moreover, the zone of inhibition at 300 µg/disc came to 8 mm in the test on Streptomyces chartreusis and 7 mm in the test with Bacillus cereus.

The IC50 is the midpoint of a concentration-inhibition curve.

The values above are taken from ChEMBL document CHEMBL1154450, “Synthesis and biological evaluation of diversely substituted indolin-2-ones” (Eur J Med Chem, 2008).
